Data reported in ChEMBL document CHEMBL3509421, “FDA drug approval package for diclofenac acid (NDA 22-202 CP, Ref ID: 3374276)”.

Legend:
[1] = Mean Cmax of diclofenac following single oral dosing of 25 mg diclofenac potassium softgel capsule in healthy human; assay type: ADME, organism-based; set-up: dietary status Fed, dose 25 mg, dosed compound id 2.46815e+06, dosed compound name Diclofenac potassium, gender Mixed, regimen Single, route oral, study doses 25/50 mg; conditions: both, plasma
[2] = (§1) Mean AUC (0-infinity) value of diclofenac following single oral dosing of 35 mg Zorvolex capsule in healthy human; assay type: ADME, organism-based; set-up: time infinity, dietary status Fed, dose 35 mg, dosed compound id 2.46815e+06, dosed compound name Diclofenac, gender Mixed, regimen Single, route oral; conditions: both, plasma, read-out: AUC (0-infinity)
[3] = Geometric mean for AUC (0-t) of diclofenac following single oral dosing of 18 mg Zorvolex capsule in healthy human; assay type: ADME, organism-based; set-up: dietary status Fasting, dose 18 mg, dosed compound id 2.46815e+06, dosed compound name Diclofenac, gender Mixed, regimen Single, route oral; conditions: both, plasma
[4] = Geometric mean for AUC (0-infinity) of diclofenac following single oral dosing of 50 mg Cataflam tablet in healthy human; assay type: ADME, organism-based, Plasma; set-up: time infinity, dietary status Fasting, dose 50 mg, dosed compound id 2.46815e+06, dosed compound name Diclofenac potassium, gender Mixed, regimen Single, route oral; conditions: in vivo
[5] = Mean terminal elimination half-life of diclofenac potassium following oral dosing of Cataflam 50 mf tablet in healthy human; conditions: both, plasma, 50 mg
[6] = Geometric mean for Cmax of diclofenac following single oral dosing of 35 mg Zorvolex capsule in healthy human; assay type: ADME, organism-based; set-up: dietary status Fed, dose 35 mg, dosed compound id 2.46815e+06, dosed compound name Diclofenac, gender Mixed, regimen Single, route oral; conditions: both, plasma
clinical [7] = conditions: both, human, plasma, po, 25 mg
[8] = Mean median Tmax value of diclofenac potassium following oral dosing of Cataflam 50 mf tablet in healthy human; assay type: ADME, organism-based; set-up: dietary status Fed, dose 50 mg, dosed compound id 2.46815e+06, dosed compound name Diclofenac potassium, gender Mixed, regimen Single, route oral, study doses 50 mg; conditions: both, plasma, 50 mg, read-out: Median Tmax
[9] = (§2) Mean AUC (0-infinity) of diclofenac following single oral dosing of 50 mg diclofenac potassium softgel capsule in healthy human; assay type: ADME, organism-based; set-up: time infinity, dietary status Fed, dose 50 mg, dosed compound id 2.46815e+06, dosed compound name Diclofenac potassium, gender Mixed, regimen Single, route oral, study doses 25/50 mg; conditions: both, plasma, read-out: AUC (0-infinity)
[10] = Mean Tmax of diclofenac following single oral dosing of 25 mg diclofenac potassium soft gelatin capsule in healthy human; assay type: ADME, organism-based; set-up: dietary status Fasting, dose 25 mg, dosed compound id 2.46815e+06, dosed compound name Diclofenac potassium, gender Mixed, regimen Single, route oral, study doses 25/50 mg; conditions: both, plasma
[11] = Geometric mean for AUC (0-t) of diclofenac following single oral dosing of 50 mg Cataflam tablet in healthy human; assay type: ADME, organism-based; set-up: dietary status Fasting, dose 50 mg, dosed compound id 2.46815e+06, dosed compound name Diclofenac potassium, gender Mixed, regimen Single, route oral; conditions: both, plasma
[12] = Mean minimum Tmax value of diclofenac potassium following oral dosing of PRO-513 50 mg sachet in healthy human; assay type: ADME, organism-based, Plasma; set-up: dietary status Fed, dose 50 mg, dosed compound id 2.46815e+06, dosed compound name Diclofenac potassium, gender Mixed, regimen Single, route oral, study doses 50 mg; conditions: in vivo
[13] = Mean Tmax of diclofenac following single oral dosing of 50 mg diclofenac potassium softgel capsule in healthy human; assay type: ADME, organism-based; set-up: dietary status Fed, dose 50 mg, dosed compound id 2.46815e+06, dosed compound name Diclofenac potassium, gender Mixed, regimen Single, route oral, study doses 25/50 mg; conditions: both, plasma
[14] = Minimum tmax of diclofenac following single oral dosing of 18 mg Zorvolex capsule in healthy human; assay type: ADME, organism-based, Plasma; set-up: dietary status Fasting, dose 18 mg, dosed compound id 2.46815e+06, dosed compound name Diclofenac, gender Mixed, regimen Single, route oral; conditions: in vivo
[15] = Mean Tmax of diclofenac following single oral dosing of 25 mg diclofenac potassium softgel capsule in healthy human; assay type: ADME, organism-based; set-up: dietary status Fasting, dose 25 mg, dosed compound id 2.46815e+06, dosed compound name Diclofenac potassium, gender Mixed, regimen Single, route oral, study doses 25/50 mg; conditions: both, plasma
[16] = Mean AUC(0-t) of diclofenac potassium following oral dosing of Cataflam 50 mf tablet in healthy human; assay type: ADME, organism-based; set-up: dietary status Fed, dose 50 mg, dosed compound id 2.46815e+06, dosed compound name Diclofenac potassium, gender Mixed, regimen Single, route oral, study doses 50 mg; conditions: both, plasma, 50 mg
[17] = Mean AUC(0-infinity) of diclofenac potassium following oral dosing of PRO-513 50 mg sachet in healthy human; assay type: ADME, organism-based; set-up: time infinity, dietary status Fasting, dose 50 mg, dosed compound id 2.46815e+06, dosed compound name Diclofenac potassium, gender Mixed, regimen Single, route oral, study doses 50 mg; conditions: both, plasma, read-out: AUC(0-infinity)
[18] = Mean apparent terminal elimination rate constant value of diclofenac following single oral dosing of 50 mg Cataflam tablet in healthy human; assay type: ADME, organism-based, Plasma; set-up: dietary status Fasting, dose 50 mg, dosed compound id 2.46815e+06, dosed compound name Diclofenac potassium, gender Mixed, regimen Single, route oral; conditions: in vivo
[19] = Mean AUC(0-infinity) of diclofenac potassium following oral dosing of Cataflam 50 mf tablet in healthy human; assay type: ADME, organism-based; set-up: dietary status Fed, dose 50 mg, dosed compound id 2.46815e+06, dosed compound name Diclofenac potassium, gender Mixed, regimen Single, route oral, study doses 50 mg, time infinity; conditions: both, plasma, 50 mg, read-out: AUC(0-infinity)
[20] = Mean minimum Tmax value of diclofenac potassium following oral dosing of Cataflam 50 mf tablet in healthy human; assay type: ADME, organism-based; set-up: dietary status Fasting, dose 50 mg, dosed compound id 2.46815e+06, dosed compound name Diclofenac potassium, gender Mixed, regimen Single, route oral, study doses 50 mg; conditions: both, plasma, 50 mg, read-out: Minimum Tmax
[21] = Mean Cmax of diclofenac following single oral dosing of 50 mg diclofenac potassium soft gelatin capsule in healthy human; assay type: ADME, organism-based; set-up: dietary status Fasting, dose 50 mg, dosed compound id 2.46815e+06, dosed compound name Diclofenac potassium, gender Mixed, regimen Single, route oral, study doses 25/50 mg; conditions: both, plasma
[22] = Mean AUC (0-infinity) value of diclofenac following single oral dosing of 18 mg Zorvolex capsule in healthy human; assay type: ADME, organism-based; set-up: time infinity, dietary status Fasting, dose 18 mg, dosed compound id 2.46815e+06, dosed compound name Diclofenac, gender Mixed, regimen Single, route oral; conditions: both, plasma, read-out: AUC (0-infinity)
[23] = Minimum tmax of diclofenac following single oral dosing of 35 mg Zorvolex capsule in healthy human; assay type: ADME, organism-based, Plasma; set-up: dietary status Fasting, dose 35 mg, dosed compound id 2.46815e+06, dosed compound name Diclofenac, gender Mixed, regimen Single, route oral; conditions: in vivo
[24] = as §1; assay type: ADME, organism-based; set-up: time infinity, dietary status Fasting, dose 35 mg, dosed compound id 2.46815e+06, dosed compound name Diclofenac, gender Mixed, regimen Single, route oral; conditions: both, plasma, read-out: AUC (0-infinity)
[25] = Geometric mean for Cmax of diclofenac following single oral dosing of 18 mg Zorvolex capsule in healthy human; assay type: ADME, organism-based; set-up: dietary status Fasting, dose 18 mg, dosed compound id 2.46815e+06, dosed compound name Diclofenac, gender Mixed, regimen Single, route oral; conditions: both, plasma
[26] = Mean Cmax value of diclofenac following single oral dosing of 35 mg Zorvolex capsule in healthy human; assay type: ADME, organism-based; set-up: dietary status Fed, dose 35 mg, dosed compound id 2.46815e+06, dosed compound name Diclofenac, gender Mixed, regimen Single, route oral; conditions: both, plasma
[27] = as §2; assay type: ADME, organism-based; set-up: time infinity, dietary status Fasting, dose 50 mg, dosed compound id 2.46815e+06, dosed compound name Diclofenac potassium, gender Mixed, regimen Single, route oral, study doses 25/50 mg; conditions: both, plasma, read-out: AUC (0-infinity)
clinical [28] = conditions: both, human, plasma, po, 25 mg; remark: listed apart in the source
Description: Mean terminal elimination half-life of diclofenac following single oral dosing of 25 mg diclofenac potassium softgel capsule in healthy human

[29] = Mean AUC (0-t) value of diclofenac following single oral dosing of 35 mg Zorvolex capsule in healthy human; assay type: ADME, organism-based; set-up: dietary status Fasting, dose 35 mg, dosed compound id 2.46815e+06, dosed compound name Diclofenac, gender Mixed, regimen Single, route oral; conditions: both, plasma
[30] = Mean maximum Tmax value of diclofenac potassium following oral dosing of Cataflam 50 mf tablet in healthy human; assay type: ADME, organism-based; set-up: dietary status Fasting, dose 50 mg, dosed compound id 2.46815e+06, dosed compound name Diclofenac potassium, gender Mixed, regimen Single, route oral, study doses 50 mg; conditions: both, plasma, 50 mg, read-out: Maximum Tmax
[31] = Minimum tmax of diclofenac following single oral dosing of 50 mg Cataflam tablet in healthy human; assay type: ADME, organism-based, Plasma; set-up: dietary status Fasting, dose 50 mg, dosed compound id 2.46815e+06, dosed compound name Diclofenac potassium, gender Mixed, regimen Single, route oral; conditions: in vivo

## O=C(O)Cc1ccccc1Nc1c(Cl)cccc1Cl [DICLOFENAC]
[1]
  Cmax: 686 ng/mL
[2]
  AUC(0-inf): 876 ng·h/mL
[3]
  AUC(0-t): 478 ng·h/mL
[4]
  AUC (0-infinity): 1301.961 ng·h/mL
[5]
  half-life: 1.29 h
[6]
  Cmax: 321 ng/mL
Clinical [7]
  half-life: 1.35 h
[8]
  Tmax: 1.25 h
[9]
  AUC(0-inf): 1460 ng·h/mL
[10]
  Tmax: 0.45 h
[11]
  AUC(0-t): 1290 ng·h/mL
[12]
  Minimum Tmax: 4.8 min
[13]
  Tmax: 1.28 h
[14]
  Minimum Tmax: 0.5 h
[15]
  Tmax: 0.49 h
[16]
  AUC(0-t): 1060 ng·h/mL
[17]
  AUC(0-inf): 1250 ng·h/mL
[18]
  lambda-z: 0.333 h⁻¹
[19]
  AUC(0-inf): 1070 ng·h/mL
[20]
  Tmax: 0.25 h
[21]
  Cmax: 2040 ng/mL
[22]
  AUC(0-inf): 499 ng·h/mL
[23]
  Minimum Tmax: 0.47 h
[24]
  AUC(0-inf): 1000 ng·h/mL
[25]
  Cmax: 454 ng/mL
[26]
  Cmax: 355 ng/mL
[27]
  AUC(0-inf): 1550 ng·h/mL
Clinical [28]
  half-life: 1.04 h
[29]
  AUC(0-t): 1000 ng·h/mL
[30]
  Tmax: 4 h
[31]
  Minimum Tmax: 0.25 h
